Patent US9023340B2, “Wnt inhibitors for human stem cell differentiation” (ChemRegen, Inc., priority 2011, dated 2015)

Legend:
Wnt signaling = assay: Wnt assay (Super TOPflash/Wnt3a dual-luciferase reporter in 293T cells); assay type: cell-based; conditions: Homo sapiens, HEK-293T, TOPflash luciferase normalized to renilla; for inhibition at 1 µM: 1000 nM compound, read-out: Wnt Assay % inh. @ 1000 nM
Description: Wnt assay protocol: 293T cells were grown in DMEM-high glucose (phenol red) supplemented with 10% (v/v) FBS and 1 mM L-glutamine. 1 million (M) cells were transfected with 1 μg Super(7×)TOPflash (Addgene plasmid 12456: M50 Super 8× TOPflash; 1 μg Wnt3a)—and 0.1 μg TK-Renilla-Lux (pRL-TK vector)-vectors using lipofectamine 2000 reagent according to the manufacturer's protocol. Cells were allowed to adhere for 8-10 hours, lifted with trypsin/EDTA, centrifuged, homogenized and counted before seeding 25,000 cells/well onto 96-well plates. After letting cells settle and attach for 1-2 hours in the incubator, a dose of test compound (and media/DMSO controls) was added. Plates were incubated for 18-20 hours and luciferase activities were determined using a Dual-Luciferase assay kit according to the manufacturer's instructions. Chemiluminescence was recorder on a plate reader instrument, and firefly-derived luminescence was normalized against renilla luminescence. Data were derived from at least two independent experiments, with a minimum of three replicates per condition. Non-linear regression analysis (log dose/response) was done using Prism 5 software.

[1] = tested on: hESC H9 lines carrying MYH6-mCherry reporters; assay: Human embryonic stem cell high content screening assay (cardiogenesis, MYH6-mCherry reporter); assay type: cell-based; conditions: 1250 nM compound; MYH6-mCherry fluorescence readout normalized to DMSO treated wells
Description: Human embryonic stem cell (hESC) H9 lines carrying MYH6-mCherry reporters were maintained: in brief, cells were grown on a mouse embryonic fibroblast coated matrigel plate in Knock Out DMEM media supplemented with 20% Knock Out Serum Replacement and 8 ng/ml bFGF. For embryoid body (EB) differentiation, hESC were mechanically passaged onto gelatin-coated dishes preseeded with mouse embryonic fibroblasts. After 4 days hESC colonies were lifted off with a 10 minute 1 mg/ml collagenase IV treatment and directly differentiated in StemPro 34 with addition of 0.5 ng/ml Bmp4 from day 0-1, 10 ng/ml Bmp4, 5 ng/ml bFGF and 3 ng/ml Activin A from day 1-4. At day 4 and were dissociated gently to single cells with TrypLE. Single cells were then transferred in gelatin coated 384-well optical plates in StemPro 34 with […] FGF at a seeding density of 250,000 cells/cm^2. At this point cells were exposed to test compounds. At day 10, media with compound was removed and exchanged for a serum free media (SFM). T3, the thyroid hormone analog triiodothyronine, was added at day 10 to increase the red signal driven by the MYH6 promoter for more reliable imaging. […] For RT-qPCR analysis T3 treatment was omitted to avoid interference with the biological mRNA expression of MYH6. Media was changed to PBS at day 14 and red fluorescence was imaged on an InCell 1000 high throughput microscope. For the quantification of cardiac induction, image analysis was done with the Cyteseer Image Analysis Software package by measuring the total area and intensity of the MYH6-mCherry reporter in each well. The MYH6-expression levels indicated in the graphs represent the multiplication of the total area and intensity of red fluorescence.
For toxicity assessment the hESC cell line was engineered for screening with a H2B-GFP reporter, allowing quantification of the cell number. Using Cyteseer, total GFP signal was quantified in each well. Wells with a GFP reduction of 20% or more (relative to vehicle only controls) were flagged for toxicity and were manually confirmed under a bright field microscope for evidence of cell death.
For the screens, Z scores (Z score=(average of treated−average of DMSO)/StDev of DMSO) were calculated using the fluorescence readout for each concentration normalized to DMSO treated wells. Integrated Z scores over all concentrations were calculated by adding the Z scores of the 3 concentrations tested. Table 2 reports Z scores at a compound concentration of 1250 nM.

O=C1[C@@H]2[C@@H]3CC[C@@H](C3)[C@@H]2C(=O)N1[C@H]1CC[C@H](C(=O)Nc2ccc(Br)cn2)CC1 [Compound 19]
inhibition at 1 µM (Wnt signaling): 68 ± 4%

O=C1[C@@H]2[C@@H]3CC[C@@H](C3)[C@@H]2C(=O)N1[C@H]1CC[C@H](C(=O)Nc2cncc(O)c2)CC1 [Compound 13]
Cardiogenesis Assay Z score vs DMSO @ 1250 nM [1]: 99.2 | IC50 (Wnt signaling): 152 nM

COc1ccc(NC(=O)[C@H]2CC[C@H](N3C(=O)[C@@H]4[C@@H]5CC[C@@H](C5)[C@@H]4C3=O)CC2)cn1 [Compound 5]
inhibition at 1 µM (Wnt signaling): 75 ± 2% | IC50 (Wnt signaling): 344 nM

O=C1[C@@H]2[C@@H]3CC[C@@H](C3)[C@@H]2C(=O)N1[C@H]1CC[C@H](C(=O)Nc2cccnc2Cl)CC1 [Compound 7]
Cardiogenesis Assay Z score vs DMSO @ 1250 nM [1]: 3.1 | IC50 (Wnt signaling): 166 nM

O=C1[C@@H]2[C@@H]3CC[C@@H](C3)[C@@H]2C(=O)N1[C@H]1CC[C@H](C(=O)Nc2cccnc2)CC1 [Compound 1]
Cardiogenesis Assay Z score vs DMSO @ 1250 nM [1]: 0.6 | IC50 (Wnt signaling): 42 nM

O=C1[C@@H]2[C@@H]3CC[C@@H](C3)[C@@H]2C(=O)N1[C@H]1CC[C@H](C(=O)Nc2ccc(C(F)(F)F)nc2)CC1 [Compound 8]
inhibition at 1 µM (Wnt signaling): 46 ± 7% | IC50 (Wnt signaling): 870 nM

CC(=O)c1ccncc1NC(=O)[C@H]1CC[C@H](N2C(=O)[C@@H]3[C@@H]4CC[C@@H](C4)[C@@H]3C2=O)CC1 [Compound 18]
Cardiogenesis Assay Z score vs DMSO @ 1250 nM [1]: 0.2 | IC50 (Wnt signaling): 287 nM

CC(=O)c1ccccc1NC(=O)C1CCC(N2C(=O)[C@@H]3[C@@H]4CC[C@@H](C4)[C@@H]3C2=O)CC1 (stereo partly shown) [Compound 12]
Cardiogenesis Assay Z score vs DMSO @ 1250 nM [1]: 117.0 | inhibition at 1 µM (Wnt signaling): 91 ± 1% | IC50 (Wnt signaling): 23 nM

O=C1[C@@H]2[C@@H]3CC[C@@H](C3)[C@@H]2C(=O)N1[C@H]1CC[C@H](C(=O)Nc2ccncc2)CC1 [Compound 2]
Cardiogenesis Assay Z score vs DMSO @ 1250 nM [1]: 0.2 | IC50 (Wnt signaling): 47 nM

Cc1ccncc1NC(=O)[C@H]1CC[C@H](N2C(=O)[C@@H]3[C@@H]4CC[C@@H](C4)[C@@H]3C2=O)CC1 [Compound 20]
inhibition at 1 µM (Wnt signaling): 0%

CC(=O)c1ccccc1NC(=O)[C@H]1CC[C@H](N2C(=O)[C@@H]3[C@@H]4CC[C@@H](C4)[C@@H]3C2=O)CC1 [Compound 3]
Cardiogenesis Assay Z score vs DMSO @ 1250 nM [1]: 132.9 | inhibition at 1 µM (Wnt signaling): 91 ± 1% | IC50 (Wnt signaling): 14 nM

CC(=O)c1ncccc1NC(=O)[C@H]1CC[C@H](N2C(=O)[C@@H]3[C@@H]4CC[C@@H](C4)[C@@H]3C2=O)CC1 [Compound 17]
Cardiogenesis Assay Z score vs DMSO @ 1250 nM [1]: 236.2 | IC50 (Wnt signaling): 2 nM

O=C1[C@@H]2[C@@H]3CC[C@@H](C3)[C@@H]2C(=O)N1[C@H]1CC[C@H](C(=O)Nc2ccccn2)CC1 [Compound 4]
Cardiogenesis Assay Z score vs DMSO @ 1250 nM [1]: 1.8 | IC50 (Wnt signaling): 86 nM

O=C1c2ccccc2-c2cccc(NC(=O)[C@H]3CC[C@H](N4C(=O)[C@@H]5[C@@H]6CC[C@@H](C6)[C@@H]5C4=O)CC3)c21 [Compound 11]
Cardiogenesis Assay Z score vs DMSO @ 1250 nM [1]: 42.7 | IC50 (Wnt signaling): 193 nM

Cc1ccc(NC(=O)[C@H]2CC[C@H](N3C(=O)[C@@H]4[C@@H]5CC[C@@H](C5)[C@@H]4C3=O)CC2)cn1 [Compound 6]
inhibition at 1 µM (Wnt signaling): 48 ± 7% | IC50 (Wnt signaling): 1380 nM

O=C1CCCc2cccc(NC(=O)[C@H]3CC[C@H](N4C(=O)[C@@H]5[C@@H]6CC[C@@H](C6)[C@@H]5C4=O)CC3)c21 [Compound 14]
Cardiogenesis Assay Z score vs DMSO @ 1250 nM [1]: 69.6 | IC50 (Wnt signaling): 19 nM

COC(=O)c1ccccc1NC(=O)[C@H]1CC[C@H](N2C(=O)[C@@H]3[C@@H]4CC[C@@H](C4)[C@@H]3C2=O)CC1 [Compound 10]
Cardiogenesis Assay Z score vs DMSO @ 1250 nM [1]: 44.9 | IC50 (Wnt signaling): 67 nM

Cc1cncc(NC(=O)[C@H]2CC[C@H](N3C(=O)[C@@H]4[C@@H]5CC[C@@H](C5)[C@@H]4C3=O)CC2)c1 [Compound 21]
inhibition at 1 µM (Wnt signaling): 49 ± 5%

O=C1[C@@H]2[C@@H]3CC[C@@H](C3)[C@@H]2C(=O)N1[C@H]1CC[C@H](C(=O)Nc2ccnc(Cl)c2)CC1 [Compound 9]
inhibition at 1 µM (Wnt signaling): 68 ± 4% | IC50 (Wnt signaling): 374 nM
